Reference: ChEMBL document CHEMBL3507680, “University of Dundee, Gates Library screen for HepG2 cell viability”

assay: Human HepG2 cell viability assay in 384 well format; type: toxicity, cell-based; set-up: dose 125 nL, time 70.5 hour; concentration not given beside the values; settings: HepG2 cells, read-out: Inhibition

Row | Compound | cytotoxicity at 70.5 h [%]
1 | O=C(Nc1cccc(N2CCN(CC3CC3)CC2)c1)N1CCCC1 | 0.629
2 | CC(=O)NCCC(=O)Nc1cccc(N2CCN(CC3CC3)CC2)c1 | -0.54
3 | CSCC(C)(O)CNC(=O)c1ccc(F)cc1Cl (stereo not given) | 0.551
4 | Cc1cnc(NC(=O)N2CCC(N3CCCCC3=O)CC2)s1 | -1.3
5 | OC(CN(Cc1ccccc1)Cc1ccccn1)c1cccs1 (stereo not given) | -11
6 | OC(CN(Cc1ccccc1)Cc1cscn1)c1cccs1 (stereo not given) | -2.62
7 | Cc1nc(C)c(C(=O)NCC(c2ccccc2Cl)N2CCOCC2)s1 (stereo not given) | 19.6
8 | Cc1cc(C(=O)NCC(c2ccccc2Cl)N2CCOCC2)on1 (stereo not given) | -1.66
9 | Cc1[nH]ncc1CCCNC(=O)Nc1ccc(S(C)(=O)=O)nc1 | 10.3
10 | O=C(c1cccnc1-n1cncn1)N1CCN(CC(F)(F)F)CC1 | -0.957
11 | Cc1nnc(NCC2(c3ccccc3)CCOCC2)c(C#N)c1C | 16.6
12 | CNC(=O)COc1nc(C(C)(C)C)no1 | 3.09
13 | CN(Cc1noc(C(C)(C)C)n1)CC1CCN(CCO)CC1 | -3.04
14 | CCOCC(O)CN1CCN(C(=O)c2ccncc2)CC1 (stereo not given) | -3.55
15 | Cc1ccc(C(=O)NCC2(O)CCOCC2)cc1F | -1.08
16 | COc1ccccc1C1(CNc2nnc(C)c(C)c2C#N)CCCC1 | 2.69
17 | CCN(CC(C)C#N)C(=O)CSc1ccc(C(F)(F)F)cn1 (stereo not given) | -3.1
18 | CC(C)CC(=O)NCc1cccc(OCCN(C)C2CCOCC2)c1 | -4.5
19 | CN1CCCN(C(=O)NCCNc2ncccc2C#N)CC1 | -2.49
20 | CC(C)COC(=O)N1CCCN(Cc2nnc(C(C)(C)C)o2)CC1 | -4.02
21 | CN(Cc1ccc(C#N)cc1)C(=O)c1ccnc(OC2CCC2)c1 | 16.3
22 | Cc1ccc(CN(C)C(=O)CN2CCCCC2Cn2cncn2)o1 (stereo not given) | 17.9
23 | CCOCC(O)CN1CCN(C(=O)c2ccsc2)CC1 (stereo not given) | 17.1
24 | Cc1cc2n(n1)CC(CNCCNC(=O)c1ccc(F)cc1)CN2 (stereo not given) | -4.35

Row | Compound | cytotoxicity at 70.5 h [%]
25 | CC(C)c1noc(CNC2CCCN(Cc3noc(C4CC4)n3)C2)n1 (stereo not given) | -11.4
26 | Cc1csc(CN(C)C(=O)Nc2cnn(CC3CCCO3)c2)n1 (stereo not given) | -12.7
27 | CN1CCC(CN(C)S(=O)(=O)CC2CCCCC2)CC1 | 11.1
28 | O=C(CC1=CCCCC1)Nc1ccc(CN2C(=O)CCC2=O)cc1 | -3.73
29 | CC(C)N1CCC(Nc2ccn(C)n2)C1=O (stereo not given) | -3.38
30 | CCC1c2ccccc2CCN1C(=O)c1ccc(OC)nn1 (stereo not given) | -0.324
31 | Cn1ccc(C(=O)N(CC(F)F)c2cccc(Cl)c2)cc1=O | -2.11
32 | CN1CCCC(N2CCN(c3nc4ccccn4c3C#N)CC2)C1 (stereo not given) | 11.1
33 | CS(=O)(=O)CCN(Cc1cccc(O)c1)C1CCC(O)CC1 (stereo not given) | -4.64
34 | CCC1c2ccccc2CCN1C(=O)c1ccnc(C(=O)OC)c1 (stereo not given) | -1.37
35 | CN(Cc1cnn(C)c1)S(=O)(=O)N1CCCC1c1ccco1 (stereo not given) | -0.954
36 | Cc1cnn(CC2CCCCN2C(=O)c2ccc(C#N)c(C)n2)c1 (stereo not given) | -0.947
37 | COc1ccnc(N(C)Cc2ccccc2OC(F)(F)F)n1 | -1.49
38 | Cc1cc(C(=O)N2CCCC(N3CCCCCC3)C2)nn1C(C)(C)C (stereo not given) | 16.8
39 | COc1cc(C(=O)N(C)C)ccc1NC(=O)c1ccsc1 | 1.32
40 | CN(CC1CC1)C(=O)CN1CCCC1c1cnn(C)c1 (stereo not given) | 1.65
41 | CC(=O)Nc1nc(C(=O)NCCOc2cccc(C)c2)cs1 | -8.98
42 | CC(=O)Nc1nc(C(=O)NCCOc2cccc(F)c2)cs1 | -17.7
43 | CC(C)N(C)Cc1ccccc1CNc1ccc2nncn2n1 | -12
44 | COc1ccccc1C(=O)Nc1c(C)cnn1CC1CC1 | -21.8
45 | CCOc1ncccc1C(=O)Nc1c(C)cnn1CC1CC1 | -9.45
46 | CN(C(=O)CN1CCCC1c1cnn(C)c1)C1(C#N)CCCCC1 (stereo not given) | -4.65
47 | NC(=O)CCn1ccc(NC(=O)C2(c3ccc(F)cc3)CCC2)n1 | 1.99
48 | Cc1cnn(CCC(=O)Nc2ccc(F)cc2OCC2CC2)c1 | -12.1

Row | Compound | cytotoxicity at 70.5 h [%]
49 | O=C(CCn1cncn1)Nc1ccc(F)cc1OCC1CC1 | -9.3
50 | O=C(Cn1cnnn1)Nc1ccc(F)cc1OCC1CC1 | -13.9
51 | CNC(=O)c1ccc(OC)c(NCc2noc(-c3cccs3)n2)c1 | -16.8
52 | O=C(c1cccnc1)N1CCN(c2ccnc3ccsc23)CC1 | -10.7
53 | Cc1cc(CNC(=O)NCc2cccs2)ccc1S(C)(=O)=O | -8.79
54 | CC(CNC(=O)c1c[nH]nn1)Oc1ccccc1Br (stereo not given) | -10.7
55 | CC(C)S(=O)(=O)N(C)C(=O)CCc1ccsc1 | -12
56 | Cc1ccc(C(=O)N2CCN(c3ccnc4ccsc34)CC2)o1 | -12
57 | CCCS(=O)(=O)N(C)C(=O)CCc1ccsc1 | 0.207
58 | COCCOc1ccc(NCc2cccc3cn[nH]c23)cn1 | -7.69
59 | COCCOc1ncccc1C(=O)Nc1c(C)cnn1CC1CC1 | 8.78
60 | COCCOc1ccccc1C(=O)Nc1c(C)cnn1CC1CC1 | -6.01
61 | Cc1cccc(OC2CCN(c3ncc(C#N)cc3Cl)CC2)n1 | -6.22
62 | CN(Cc1ccccc1)C(=O)CN1CCCC1c1cnn(C)c1 (stereo not given) | -10.2
63 | Cc1ccc(-c2nnc(C(C)NCCn3cc(C)cn3)o2)cc1 (stereo not given) | -14.8
64 | CCn1c(C)cc(C(=O)NCc2cccc(S(=O)(=O)NC)c2)c1C | -4.15
65 | Cc1cc(SC(C)(C)C)ccc1NC(C)C(=O)NC(N)=O (stereo not given) | 9.69
66 | CCc1noc(CS(=O)(=O)C/C=C/c2ccccc2)n1 | -10.8
67 | CCn1c(C)cc(C(=O)NCc2ccc(CS(C)(=O)=O)cc2)c1C | -7.81
68 | Fc1cccc(NCc2ncc[nH]2)c1 | -8.15
69 | CNC(=O)c1cccc(CCNC(=O)N2CCc3ccccc3C2)c1 | -1.68
70 | CC(C)c1nc(S(=O)(=O)N(C)c2ccc(F)cc2)c[nH]1 | -7.45
71 | Cc1nccc(CNS(=O)(=O)N2CCCC2c2ccc(C)o2)n1 (stereo not given) | -9.86
72 | Cc1noc(CCCNS(=O)(=O)N2CCCC2c2ccco2)n1 (stereo not given) | -9.07

Row | Compound | cytotoxicity at 70.5 h [%]
73 | Cc1noc(CCNS(=O)(=O)N2CCCC2c2ccc(C)o2)n1 (stereo not given) | 9.73
74 | Cc1cc(SC(C)(C)C)ccc1NC(=O)CNC(N)=O | -9.26
75 | Cc1cccc(I)c1C(=O)NCc1ncc[nH]1 | -10.8
76 | COc1cc(C(=O)N(C)Cc2cc(C(=O)O)c(C)o2)cc(OC)c1OC | -7.77
77 | Cc1cccc(C(=O)N2CCCC2c2c(C)n[nH]c2C)c1 (stereo not given) | -2.31
78 | Cc1cnn(CCNC(C)c2nnc(-c3cccc(Cl)c3)o2)c1 (stereo not given) | -6.22
79 | Cc1cccc(C(=O)Nc2ccc(OC3CCOCC3)c(C)c2)n1 | 15.2
80 | CC(C)c1nc(S(=O)(=O)N(C)c2cc(F)ccc2F)c[nH]1 | -4.89
81 | CC(CC#N)N(C)Cc1ccccc1Cl (stereo not given) | -7.77
82 | CC(CCNC(=O)NCCc1ccncc1)c1ccccc1 (stereo not given) | -0.345
83 | O=S(=O)(CCc1ccccc1)Cc1nc(C2CC2)no1 | -13
84 | C=C(C)CN(CC)Cc1nc(C2CC2)no1 | -5.54
85 | O=C(Cn1cncn1)NCC1(O)CCCc2ccccc21 (stereo not given) | 23.9
86 | COc1ccc(NC(=O)C2CC2)cc1OCc1cccnc1 | 23
87 | Cc1noc(C)c1CC(=O)NCC(C(C)C)N1CCOCC1 (stereo not given) | -10.6
88 | CN(Cc1ccco1)C(=O)c1ccc(=O)n(C)c1 | -6.1
89 | Cc1cccc(OCC(=O)N(Cc2ccncc2)C2CC2)c1 | -0.457
90 | COc1ccccc1C(C)N1CCN(S(=O)(=O)N(C)C)CC1 (stereo not given) | 4.97
91 | COc1ccccc1C1(CNc2ncc(S(N)(=O)=O)s2)CC1 | -6.5
92 | NC(=O)C1CCN(Cc2ccc(S(=O)(=O)N3CCCC3)o2)CC1 | -3.5
93 | O=C(CCN1CCCCC1c1cc2ccccc2[nH]1)N1CCOCC1 (stereo not given) | 8.08
94 | O=C(Nc1ccccc1Oc1cccc(F)c1)NC1CCS(=O)(=O)C1 (stereo not given) | 2.26
95 | Cc1cc(CNC(=O)c2ccc(F)c(COCC3CC3)c2)no1 | -9.69
96 | Cc1cc(C(=O)Nc2ccc(N3CCCC3)cn2)ccc1-n1cncn1 | -1.17

Row | Compound | cytotoxicity at 70.5 h [%]
97 | COCCC1(CNC(=O)NC2CCCN(C)C2)CC1 (stereo not given) | 0.563
98 | CCc1nsc(N2CCc3sccc3C2)n1 | -2.5
99 | O=C(c1ccc(O)c(Cl)c1)N(Cc1ccncc1)C1CC1 | -2.89
100 | COC(C)(C)c1noc(C2(C#N)CCCCC2)n1 | -0.329
101 | Cn1cc(CCNC(=O)N2CCCc3c(F)cccc32)cn1 | 3.99
102 | CC(NCC(=O)Nc1ccc(N2CCCCCC2)cc1)c1cccs1 (stereo not given) | -8.9
103 | CN(CC(=O)NCC(=O)Nc1ccc(F)cc1)Cc1cccs1 | -20.9
104 | COc1ccc(Oc2cc(CN)ccn2)cc1 | 2.32
105 | CC(NCC(=O)NCC(=O)Nc1ccc(F)cc1)c1cccs1 (stereo not given) | -17.8
106 | CN1CC(C(=O)NCCc2ccc3c(c2)OCCO3)CC1=O (stereo not given) | -1.68
107 | Cc1nnc(NC(=O)NCCCN2CCC(C(N)=O)CC2)s1 | -8.8
108 | CCC(C)C(=O)Nc1ccc(CCN2CCOCC2)cc1 (stereo not given) | -18.2
109 | NC(=O)C1CCN(CCCNC(=O)Nc2nccs2)CC1 | -25.9
110 | NC(=O)NC(CC(=O)N1CCc2sccc2C1)c1cccc(Br)c1 (stereo not given) | -18.1
111 | CN1CC(C(=O)NCCc2ccc(F)c(Br)c2)CC1=O (stereo not given) | -8.01
112 | Cn1ncc2c1CCCC2NCc1ccc(OCc2cccnc2)cc1 (stereo not given) | -14.4
113 | O=C(CNc1ccc(OC2CCOC2)cc1)NCc1ccc(F)cc1 (stereo not given) | -10.9
114 | COc1cc(F)c(NCc2nc3ccccc3n2C)cc1OC | -15.9
115 | COCCOc1ccc(F)cc1NCc1nc2ccccc2n1C | 11.4
116 | Cc1ccc(CCc2nc(C3CCOC3)no2)o1 (stereo not given) | 6.82
117 | CC(=O)N1CCCC(C(=O)NCCc2ccc(F)c(Br)c2)C1 (stereo not given) | -9.08
118 | CC(=O)N(C)C1CCCc2nc(C)sc21 (stereo not given) | -11
119 | CC(C)c1nc(C2CCCNC2)no1 (stereo not given) | 14.1
120 | COc1ccccc1CNC(C)c1ccc(-n2ccnc2)cc1 (stereo not given) | 32.7
